How the values were obtained:
Type in all cases: functional, cell-based
Conditions in all cases: Homo sapiens
HeLa = assay: Inhibitory concentration against HeLa cell line
MIA PaCa-2 = assay: Inhibitory concentration against MIA PaCa cell line
COLO 320 = assay: Inhibitory concentration against COLO 320 cell line
NCI-H522 = assay: Inhibitory concentration against H522 cell line
HT-29 = assay: Inhibitory concentration against HT-29 cell line
HepG2 = assay: Inhibitory concentration against HepG2 cell line

IC50 (HeLa) | IC50 (MIA PaCa-2) | IC50 (COLO 320) | IC50 (NCI-H522) | IC50 (HT-29) | IC50 (HepG2) | SMILES
7.5 µM | 3.76 µM | 0.9 µM | 7.14 µM | 7.13 µM | > 30 µM | COc1cccc2c(=O)c3c(O)cc4c(c3oc12)[C@@H]1OC[C@](O)(CCl)[C@@H]1O4
19 µM | 12.3 µM | 12.3 µM | 20 µM | 36.7 µM | > 30 µM | COc1cccc2c(=O)c3c(O)cc4c(c3oc12)[C@@H]1OC[C@](O)(CO)[C@@H]1O4
23.5 µM | > 30 µM | > 30 µM | > 30 µM | > 30 µM | > 30 µM | COc1cccc2c(=O)c3c(O)c4c(cc3oc12)O[C@@H]1[C@H]4OC[C@@]1(C)O
32.5 µM | 10.9 µM | 9.19 µM | 19.4 µM | > 30 µM | 13.1 µM | COc1cccc2c(=O)c3c(O)cc4c(c3oc12)[C@@H]1OC[C@]2(CO2)[C@@H]1O4
> 30 µM | > 30 µM | > 30 µM | > 30 µM | > 30 µM | > 30 µM | C=C1CO[C@H]2c3c(cc(O)c4c(=O)c5cccc(OC)c5oc34)O[C@@H]12
23.5 µM | > 30 µM | > 30 µM | > 30 µM | > 30 µM | > 30 µM | COc1cccc2c(=O)c3c(O)c4c(cc3oc12)O[C@@H]1[C@H]4OC[C@]1(C)O
> 30 µM | > 30 µM | > 30 µM | > 30 µM | > 30 µM | > 30 µM | COc1cccc2c(=O)c3c(O)cc4c(c3oc12)C[C@H]([C@](C)(O)CO)O4
> 30 µM | 23.8 µM | 19.2 µM | 28.4 µM | > 30 µM | > 30 µM | COc1cccc2c(=O)c3c(O)cc4c(c3oc12)C[C@H]([C@@](C)(O)CO)O4

SMILES | IC50 (HeLa) | IC50 (MIA PaCa-2) | IC50 (COLO 320) | IC50 (NCI-H522) | IC50 (HT-29) | IC50 (HepG2)
COc1cc2c(c3oc4c(O)cccc4c(=O)c13)C[C@H]([C@@]1(C)CO1)O2 [PSOROSPERMIN] | 0.71 µM | 0.21 µM | 0.069 µM | 0.45 µM | 0.64 µM | 0.38 µM
